Reference: patent US10912816B2, “Obesity-related genes and their proteins and uses thereof” (THE TRUSTEES OF COLUMBIA UNIVERSITY IN THE CITY OF NEW YORK, priority 2010, dated 2021)
“Also recorded” adds a separate entry of the source.

Assays:
[1] = Conditioned taste aversion testing; type: in vivo, adult female Wistar rats; settings: ip injection on test days 1-3; spexin 70 μg/kg, LiCl 63.5 mg/kg body weight (FIG. 29)
Description: After 20 hrs of water deprivation, rats were offered a single bottle containing 0.1% sodium saccharin for 20 min, followed by an ip injection of physiological saline (n=6), 70 μg spexin/kg body weight (n=6), or 63.5 mg LiCl/kg body weight (0.15M LiCl) (n=5) after an additional 20 min. Injections were administered on test days 1-3, with no injection on the final test day. […] Data points represent mean±SEM.
Conditioned taste aversion studies were conducted using adult female Wistar rats according to established protocols [P27-P29]. For training, rats were water but not food deprived for 20 hrs (1800-1400 hrs the following day), then offered a single bottle of water ad libitum for 20 min. Training sessions took place on 2 days of each week, spaced at 3-4 day intervals, to allow recovery of normal food intake and body weight. A total of 7 training sessions were conducted, by which time all animals had learned to drink promptly when fluid was offered. Testing was initiated on the same schedule, with 0.1% sodium saccharin rather than water as the available liquid. On test days 1-3 groups of rats were injected ip with either physiological saline, spexin (70 μg/kg body weight), or LiCl (63.5 mg/kg body weight). All groups experienced their first saccharin exposure and injection on test day 1. […]

[2] = Body weight and 24 hour feeding behavior in DIO rats (BioDaq Food Intake Monitoring System); type: in vivo; settings: DIO rats on treatment
Description: Obese adult female Wistar rats (n=4/group) received single daily injections (sc) of vehicle or Spexin (35 μg/kg BW). Body weights and food intake were measured daily. Average daily food intake (FIG. 22A) and body weight (FIG. 22B) for each group was recorded for each 24 hr period. 24 hr food intake was reduced in the Spexin treated animals (dark circles) by Day 3. […] This effect persisted well beyond the immediate treatment period, and was apparent out to Day 7.
A more detailed analysis of hourly feeding behaviors, including 1) number of “meals” during a 24 hr light/dark cycle, and 2) meal duration and incidence were continuously recorded by a BioDaq Food Intake Monitoring System (FIG. 23). Pre-treatment baselines (FIG. 23A), on-treatment responses (FIG. 23B), early (FIG. 23C) and late (FIG. 23D) “wash-out” periods are presented. […]
Obese (DIO) adult female Wistar rats (n=4/group) received single daily injections (sc) of vehicle or Spexin (35 μg/kg BW). Individual body weights and food intake were measured and recorded daily, and the average food intake and body weight for each group was recorded for each 24 hour period. For a more detailed analysis of hourly feeding behaviors, number of feeding events or “meals” during a 24 hour light/dark cycle, and frequency and durations of individual meals were continuously recorded via a BioDaq Food Intake Monitoring System (New Brunswick, N.J.).

Row | SMILES | total amount of 0.1% saccharin solution consumed vs saline [1] | toxicity, nausea or taste aversion behaviors [2] | toxicity, nausea or taste aversion behaviors ([2]; listed as spexin)
1 | CSCC[C@H](NC(=O)[C@H](C)NC(=O)[C@H](CCC(N)=O)NC(=O)[C@@H]1CCCN1C(=O)[C@@H](NC(=O)[C@H](Cc1c[nH]c2ccccc12)NC(=O)[C@@H](N)CC(N)=O)[C@@H](C)O)C(=O)N[C@@H](CC(C)C)C(=O)N[C@@H](Cc1ccc(O)cc1)C(=O)N[C@@H](CC(C)C)C(=O)N[C@@H](CCCCN)C(=O)NCC(=O)N[C@@H](C)C(=O)N[C@@H](CCC(N)=O)C(N)=O [Spexin, NWTPQAMLYLKGAQ-amide] | No significant differences; also recorded: no signs of taste aversion were detected | No indications of nausea or taste aversion behaviors; also recorded: No overt signs of Spexin-induced toxic effects | did not exhibit overt toxicity or nausea
2 | [Cl-].[Li+] [LiCl, reference compound] | significantly less | – | –
